Results: patent publication US11872210B2, “Thiol isomerases inhibitors and use thereof” (WESTERN NEW ENGLAND UNIVERSITY, priority 2017, dated 2024)

How the values were obtained:
[1] = test system: EGFR activation and downstream signaling (STAT3 phosphorylation); test: Western blot of EGFR signaling in HCT116 cells; assay type: cell-based, human; conditions: 24 hours
Description: HCT116 (human colon cancer) cells were incubated with drug for 24 hours and total cellular extracts prepared. Protein levels were normalized, protein loaded on SDS-polyacrylamide gels and then electrophoresed before transferring to a PVDF membrane. The membranes were probed with primary antibodies of interest, followed by secondary antibodies conjugated with horseradish peroxidase.

Tail bleeding assay = assay type: in vivo, C57/BL6 mice; conditions: infused to circulating concentration of 20 μM, 5 minutes prior to tail biopsy
Description: The effects of zafirlukast on thrombus formation in mice was determined following laser injury of cremaster muscle arterioles, and observed by intravital microscopy. Male C57/BL6 mouse platelets were labelled with DyLight 649-conjugated anti-GPIb antibody (0.2 μg/g body weight) and either vehicle or zafirlukast (ZFL) infused (at a volume required to achieve a circulating concentration of 20 μM). Following laser injury, images were recorded for 5 minutes. […] FIG. 6 illustrates the effects of ZFL on bleeding were determined by tail bleeding assay. Vehicle or ZFL (at a volume required to achieve a circulating concentration of 20 μM) were infused into the femoral veins of C57/BL6 mice, 5 minutes prior to tail biopsy. 0.5 cm of tail tip was excised and blood collected in phosphate-buffered saline (PBS), and time to cessation of bleeding was recorded. […] Graphs represent mean±SEM, n=10 per treatment, data analyzed by Student's T test, ***p<0.005.

platelets = test: Platelet spreading upon collagen; assay type: cell-based; conditions: 0.1 μM-10 μM
Description: Platelet responses in the presence of zafirlukast, (0.1 μM-10 μM) were tested in a range of platelet functional assays including aggregation, granule secretion and spreading studies.

washed platelets = test: Dense granule secretion (ATP, lumi-aggregometer); assay type: cell-based, human; conditions: 10 μM; collagen 1 μg/mL; vehicle 1.25 nM
Description: Human Platelet Preparation: 50 mL of blood was drawn from drug free, consenting individuals, into a syringe containing 5 mL sodium citrate (4% w/v) and 7.5 mL warmed ACD (85 mM sodium citrate, 71 mM citric acid and 110 mM glucose). Blood was centrifuged at 102 g for 20 minutes to obtain platelet-rich plasma (PRP), which was then decanted and 104 prostacyclin (PGI2 125 μg/mL, solubilized in ethanol) added. Platelets were pelleted by centrifugation at 1413 g for 10 minutes, platelet poor plasma was discarded and the pellet resuspended in 25 mL Tyrode's-HEPES buffer (134 mM NaCl, 2.9 mM KCl, 0.34 mM Na2HPO4, 12 mM NaHCO3, 20 mM HEPES, 1 mM MgCl2 and 5 mM glucose pH 7.3), 3 mL of ACD and 10 μL PGI2 were added and then following centrifugation at 1413 g for 10 minutes, the platelet pellet was re-suspended to the appropriate cell density using Tyrode's buffer. Platelets were rested for 30 minutes at 30° C. to allow platelet responses to recover.
Dense granule secretion: 395 μL of washed platelets were added to a cuvette and incubated with 5 μL of zafirlukast or vehicle (0.1% (v/v) DMSO) for 3 minutes at 37° C. 50 μL Chronolume substrate was added and incubated for a further 2 minutes. […]
Washed platelets (4×10^8 cells/mL), were pre-treated with zafirlukast (0.1-10 μM) or vehicle for 3 minutes. […] Statistical analysis was calculated using a one-way ANOVA (n=3), *P<0.05.

OVCar8 cells = test: PrestoBlue cell proliferation assay, OVCar8; assay type: cell-based, human; conditions: OVCar8, ovarian cancer, 24 hours treatment
Description: Cells were plated at 6,000 cells/well in a 96-well plate and treated with the indicated concentration of zafirlukast 24 hours later. Cells were allowed to grow for an additional 24 hours before alterations in growth were measured by the PrestoBlue cell proliferation assay in triplicate. Fluorescence readings with an excitation at 570 nm and emission of 600 nm were collected and treated samples were converted to a percentage of the untreated controls. OVCar8 (human ovarian cancer cell line), HCT116 (human colon cancer), HeLa (cervical cancer cell line) and MDA-MB-231 (breast cancer cell line) cell lines were examined for their ability to inhibit cell proliferation. […] Table 1 illustrates the results of a cell proliferation assay testing zafirlukast against OVCar8 cells, HCT116 cells, HeLa cells and MDA-MB-231 cells.

whole human blood = test: Thrombus formation under flow (in vitro, collagen coated Cellix capillaries); assay type: cell-based
Description: Thrombus Formation under flow: Human blood was drawn into 3.2% (w/v) sodium citrate and labelled with 2 μM DIOC-6 for an hour. A […] biochip was coated with 1 μL Collagen (100 μg/mL) for 1 hour. Blood was then incubated with vehicle (0.1% (v/v) DMSO) or zafirlukast (10 μM) for 5 minutes prior to perfusion over collagen coated Cellix microfluidic cells at a shear rate of 20 dynes/cm^2. Images were recorded for 10 minutes perfusion by confocal microscopy (Nikon Al Microscope, Nikon, Japan) and analyzed using ImageJ. Whole human blood labelled with the lipophilic dye DIOC-6 was incubated with zafirlukast (10 μM) or vehicle (0.1% (v/v) DMSO) for 5 minutes before perfusion over […] capillaries coated with collagen (100 μg/mL) at an arterial shear rate of 20 dynes/cm^2. Images were recorded for 10 minutes using confocal microscopy and analyzed using ImageJ. The median fluorescence intensity was determined and compared to max intensity response; the more intense the fluorescence the larger the volume of thrombus formed.

In the case of COc1cc(C(=O)NS(=O)(=O)c2ccccc2C)ccc1Cc1cn(C)c2ccc(NC(=O)OC3CCCC3)cc12 [zafirlukast, 4-(5-cyclopentyloxycarbonylamino-1-methylindol-3-ylmethyl)-3-methoxy-N-o-tolylsulfonylbenzamide], the “inhibition of EGFR activation and downstream signaling (STAT3 phosphorylation), in words” value [1] is reported as “almost complete inhibition”, the “bleeding time (time to cessation of bleeding), in words” value (Tail bleeding assay) is reported as “no change in bleeding time” and the “platelet spreading upon collagen (in words)” value (platelets) is reported as “inhibit”. For the same compound, the “mean ATP secretion” value (washed platelets) was 0.327 nM, the IC50 (OVCar8 cells; Homo sapiens, OVCAR-8, 24 h) was 5 to 10 µM and the IC50 (OVCar8 cells) was 6 µM. For the same compound, the “final size of the thrombus (in words)” value (whole human blood; 10 μM, 10 minutes perfusion) was “significantly diminished compared to the vehicle”, the “median fluorescence intensity (MFI) of thrombus” value (whole human blood; 10 μM, after 8 minutes of flow, 20 dynes/cm^2, vehicle 89.15) was 74.86 Au and the inhibition at 10 µM (whole human blood; Homo sapiens, arterial shear 20 dynes/cm^2, read-out: inhibition of median fluorescence intensity compared to vehicle) was 14.2%.
